pIC50: −log10 of the molar value.
Legend:
Format in all cases: cell-based
PAR2 (HT-29 cells) [1] = target: T1, PAR2 (HT-29 cells) (Homo sapiens, UniProt P55085); assay: Ca FLIPR TETRA assay, ANTAGONIST mode, activator 8 μM SLIGKV; conditions: HT-29 cells, activator 8 μM SLIGKV
T1 construct: host or cells: HT-29
T1 sequence (P55085 26-397): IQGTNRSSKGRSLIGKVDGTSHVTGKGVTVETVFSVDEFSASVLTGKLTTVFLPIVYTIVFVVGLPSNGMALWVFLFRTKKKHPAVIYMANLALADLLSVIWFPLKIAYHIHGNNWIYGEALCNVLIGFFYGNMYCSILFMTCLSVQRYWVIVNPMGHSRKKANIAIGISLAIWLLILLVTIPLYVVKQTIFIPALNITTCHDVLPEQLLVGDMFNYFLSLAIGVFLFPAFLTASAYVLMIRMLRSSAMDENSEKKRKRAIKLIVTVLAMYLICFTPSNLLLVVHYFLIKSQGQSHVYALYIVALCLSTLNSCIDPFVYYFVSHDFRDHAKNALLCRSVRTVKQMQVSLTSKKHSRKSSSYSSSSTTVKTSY
Procedure, shortened: (§1)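 HT-29 cells in 1% FBS/McCoy's overnight, loaded with FLIPR Calcium 5 dye (45 min 37 °C, 15 min r.t.); compounds added and read for intrinsic Ca2+ activation, then after 30 min r.t. stimulated with fixed activator: 8 μM SLIGKV, 0.6 μM UTP, 1 U/mL thrombin or 3.1 U/mL trypsin (final).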

[2] = test system: UTP-stimulated Ca2+ response in HT-29 cells; assay: Ca FLIPR TETRA assay, ANTAGONIST mode, activator 0.6 μM UTP; conditions: HT-29 cells, activator 0.6 μM UTP
Procedure, shortened: as §1

[3] = test system: Thrombin-stimulated Ca2+ response in HT-29 cells; assay: Ca FLIPR TETRA assay, ANTAGONIST mode, activator 1 U/mL Thrombin; conditions: HT-29 cells, activator 1 U/mL Thrombin
Procedure, shortened: as §1

PAR2 (HT-29 cells) [4] = target: T1, PAR2 (HT-29 cells); assay: Ca FLIPR TETRA assay, ANTAGONIST mode, activator 3.1 U/mL trypsin; conditions: HT-29 cells, activator 3.1 U/mL trypsin
Procedure, shortened: as §1

[5] = maximal antagonist concentration per Method (A: 0.1, 1 or 2 μM; B: 50 μM)
[6] = Method A: maximal concentration of antagonist 0.1, 1 or 2 μM

Row | pIC50 (PAR2 (HT-29 cells) [1]; [5]) | pIC50 ([2]; Homo sapiens) | pIC50 ([3]; Homo sapiens) | pIC50 (PAR2 (HT-29 cells) [4]; [5]) | pIC50 (PAR2 (HT-29 cells) [1]; [6]) | pIC50 (PAR2 (HT-29 cells) [4]; [6]) | pIC50 [2] | pIC50 [3] | Compound
1 | 7.55 | < 5.70 | < 5.70 | 7.63 | – | – | – | – | Cc1cc(N2CCN(C(=O)c3cc4nc(-c5ccc(Cl)cc5)cc(C(C)(C)C)c4o3)C(C)(C)C2=O)[nH]n1 [Example I-285, 4-[7-tert-butyl-5-(4-chlorophenyl)furo[3,2-b]pyridine-2-carbonyl]-3,3-dimethyl-1-(3-methyl-1H-pyrazol-5-yl)piperazin-2-one]
2 | 8.85 | < 5.70 | < 5.70 | 8.59 | – | – | – | – | CC(C)(C)c1cc(-c2ccc(Cl)c(F)c2)nc2cc(C(=O)N3CCN(c4cc(C(=O)O)ccn4)CC3(C)C)oc12 [Example I-286]
3 | 9.52 | 5.79 | 5.74 | 9.30 | – | – | – | – | CC(C)(C)c1cc(-c2ccc(Cl)c(F)c2)nc2cc(C(=O)N3CCN(c4ccc(C(=O)O)cn4)CC3(C)C)oc12 [Example I-287]
4 | 10.00 | < 5.70 | < 5.70 | 9.52 | – | – | – | – | CC(C)(C)c1cc(-c2ccc(Cl)c(F)c2)nc2cc(C(=O)N3CCN(c4nc(C(=O)O)co4)CC3(C)C)oc12 [Example I-289]
5 | 9.15 | < 5.70 | < 5.70 | 8.96 | – | – | – | – | Cn1cc(C(=O)O)c(C(=O)N2CCN(C(=O)c3cc4nc(C5CC6(CCC6)C5)cc(C(C)(C)C)c4o3)C(C)(C)C2)n1 [Example I-291]
6 | 8.46 | < 5.70 | < 5.70 | 8.15 | – | – | – | – | CC(C)(C)c1cc(C2CC3(CCC3)C2)nc2cc(C(=O)N3CCN(C(=O)CCC(=O)O)CC3(C)C)oc12 [Example I-292]
7 | 8.27 | < 5.70 | < 5.70 | 8.17 | – | – | – | – | CCS(=O)(=O)NCC(=O)N1CCN(C(=O)c2cc3nc(C4CC5(CCC5)C4)cc(C(C)(C)C)c3o2)C(C)(C)C1 [Example I-293]
8 | 8.82 | < 5.70 | < 5.70 | 8.44 | – | – | – | – | Cc1cc(C(=O)N2CCN(C(=O)c3cc4nc(C5CC6(CCC6)C5)cc(C(C)(C)C)c4o3)C(C)(C)C2)[nH]n1 [Example I-294]
9 | 8.14 | < 5.70 | < 5.70 | 7.66 | – | – | – | – | Cc1n[nH]c(C(=O)N2CCN(C(=O)c3cc4nc(C5CC6(CCC6)C5)cc(C(C)(C)C)c4o3)C(C)(C)C2)n1 [Example I-295]
10 | 9.15 | < 5.70 | < 5.70 | 9.15 | – | – | – | – | CC(C)(C)c1cc(C2CC3(CCC3)C2)nc2cc(C(=O)N3CCN(C(=O)[C@H]4C[C@@](C)(O)C4)CC3(C)C)oc12 [Example I-296]
11 | 9.70 | 5.92 | 5.85 | 9.70 | – | – | – | – | CC(C)(C)c1cc(C2CC3(CCC3)C2)nc2cc(C(=O)N3CCN(C(=O)[C@H]4CC[C@@](C)(C(=O)O)CC4)CC3(C)C)oc12 [Example I-297]
12 | – | 6.29 | 6.29 | – | 7.85 | 7.74 | – | – | CC(C)(C)c1cc(C2CC3(CCC3)C2)nc2cc(C(=O)N3CCN(C(=O)[C@H]4CC[C@](C)(C(=O)O)CC4)CC3(C)C)oc12 [Example I-298]
13 | – | 5.77 | < 5.70 | – | 9.70 | 9.70 | – | – | CC(C)(C)c1cc(-c2ccc(Cl)c(F)c2)nc2cc(C(=O)N3CCC(CC(=O)O)CC3(C)C)oc12 (centres unmarked) [Example I-299]
14 | – | < 5.70 | < 5.70 | – | 8.80 | 8.80 | – | – | CC1(C)CN(C(=O)[C@H]2C[C@@](C)(O)C2)CCN1C(=O)c1cc2nc(-c3ccc(Cl)c(F)c3)cc(C3(C#N)CC(F)(F)C3)c2o1 [Example I-300]
15 | – | < 5.70 | < 5.70 | – | 8.52 | 8.40 | – | – | CCC(CC)c1cc(-c2ccc(F)cc2)nc2cc(C(=O)N3CCN(c4cn[nH]c4)C(=O)C3(C)C)oc12 [Example I-301]
16 | – | < 5.70 | < 5.70 | – | 7.85 | 7.71 | – | – | CCC(CC)c1cc(-c2ccc(F)cc2)nc2cc(C(=O)N3CCN(C#N)C(=O)C3(C)C)oc12 [Example I-302]
17 | – | 5.74 | 5.89 | – | 9.40 | 9.22 | – | – | CC(C)(C)c1cc(C2CCC(Cl)(Cl)CC2)nc2cc(C(=O)N3CCN(C(=O)[C@H]4CC[C@@](C)(C(=O)O)CC4)CC3(C)C)oc12 [Example I-303]
18 | – | < 5.70 | < 5.70 | – | 8.70 | 8.55 | – | – | Cc1n[nH]c(C(=O)N2CCN(C(=O)c3cc4nc(C5CCC(Cl)(Cl)CC5)cc(C(C)(C)C)c4o3)C(C)(C)C2)n1 [Example I-304]

Row | pIC50 (PAR2 (HT-29 cells) [1]; [5]) | pIC50 ([2]; Homo sapiens) | pIC50 ([3]; Homo sapiens) | pIC50 (PAR2 (HT-29 cells) [4]; [5]) | pIC50 (PAR2 (HT-29 cells) [1]; [6]) | pIC50 (PAR2 (HT-29 cells) [4]; [6]) | pIC50 [2] | pIC50 [3] | Compound
19 | – | < 5.70 | < 5.70 | – | 8.82 | 8.52 | – | – | CC(C)(C)c1cc(C2CCC(Cl)(Cl)CC2)nc2cc(C(=O)N3CCN(C(=O)[C@H]4C[C@@](C)(O)C4)CC3(C)C)oc12 [Example I-305]
20 | – | 5.74 | 5.85 | – | 8.33 | 7.77 | – | – | CC1(C)CCC(c2cc(C(C)(C)C)c3oc(C(=O)N4CCN(C(=O)[C@H]5CC[C@](C)(C(=O)O)CC5)CC4(C)C)cc3n2)CC1 [Example I-306]
21 | – | < 5.70 | < 5.70 | – | 6.91 | 6.68 | – | – | [2H]C([2H])([2H])N1CCN(C(=O)c2cc3nc(C4CCC(F)(F)CC4)cc(C(C)(C)C)c3o2)C(C)(C)C1=O [Example I-307]
22 | – | < 5.70 | < 5.70 | – | 7.85 | 7.43 | – | – | CC(C)(C)c1cc(-c2ccc(F)cc2)nc2cc(C(=O)N3CCN(C(C)(C)C)C(=O)C3(C)C)oc12 [Example I-308]
23 | – | < 5.70 | < 5.70 | – | 7.49 | 7.40 | – | – | Cc1cc(N2CCN(C(=O)c3cc4nc(C5CCC(C)(C)CC5)cc(C(C)(C)C)c4o3)C(C)(C)C2=O)n[nH]1 [Example I-309]
24 | – | < 5.70 | < 5.70 | – | 7.21 | 6.96 | – | – | CC(C)(C)c1cc(C2CCC(F)(F)CC2)nc2cc(C(=O)N3CCN(c4cn[nH]c4)C(=O)C3(C)C)oc12 [Example I-310]
25 | – | – | – | – | 7.09 | 7.08 | < 5.70 | < 5.70 | CC(C)(C)c1cc(C2CCC(F)(F)CC2)nc2cc(C(=O)N3CCN(C(=O)c4nnc[nH]4)CC3(C)C)oc12 [Example I-311]
26 | – | < 5.70 | < 5.70 | – | 6.77 | 6.59 | – | – | CN1CCN(C(=O)c2cc3nc(C4CCC(F)(F)CC4)cc(C(C)(C)C)c3o2)C(C)(C)C1=O [Example I-312]
27 | – | < 5.70 | < 5.70 | – | 7.12 | 6.51 | – | – | Cc1c[nH]nc1N1CCN(C(=O)c2cc3nc(C4CCC(C)(C)CC4)cc(C(C)(C)C)c3o2)C(C)(C)C1=O [Example I-313]
28 | – | < 5.70 | < 5.70 | – | 6.72 | 6.14 | – | – | CC(C)(C)c1cc(-c2ccc(F)cc2)nc2cc(C(=O)N3CCN(C(=O)[C@H]4C[C@@](C)(O)C4)C(C)(C)C3)oc12 [Example I-314]
29 | – | < 5.70 | < 5.70 | – | 8.24 | 7.92 | – | – | CC1(C)CCC(c2cc(C(C)(C)C)c3oc(C(=O)N4CCN(c5cn[nH]c5)C(=O)C4(C)C)cc3n2)CC1 [Example I-315]
30 | – | < 5.70 | < 5.70 | – | 8.09 | 8.00 | – | – | CN1CCN(C(=O)c2cc3nc(C4CCC(C)(C)CC4)cc(C(C)(C)C)c3o2)C(C)(C)C1=O [Example I-317]
31 | – | < 5.70 | < 5.70 | – | 8.55 | 8.34 | – | – | Cn1cnnc1N1CCN(C(=O)c2cc3nc(-c4ccc(Cl)c(F)c4)cc(C(C)(C)C)c3o2)C(C)(C)C1 [Example I-318]
32 | – | < 5.70 | < 5.70 | – | 9.70 | 9.70 | – | – | CC(C)[C@@H](CC(=O)N1CCN(C(=O)c2cc3nc(C4CCC(C)(C)CC4)cc(C(C)(C)C)c3o2)C(C)(C)C1)C(=O)O [Example I-319]
33 | – | < 5.70 | < 5.70 | – | 10.00 | 9.70 | – | – | CC(C)[C@@H](CC(=O)N1CCN(C(=O)c2cc3nc(-c4ccc(Cl)cc4)cc(C(C)(C)C)c3o2)C(C)(C)C1)C(=O)O [Example I-320]
34 | – | < 5.70 | < 5.70 | – | 10.00 | 10.00 | – | – | CC(C)[C@@H](CC(=O)N1CCN(C(=O)c2cc3nc(-c4ccc(Cl)c(F)c4)cc(C(C)(C)C)c3o2)C(C)(C)C1)C(=O)O [Example I-321]
35 | – | < 5.70 | < 5.70 | – | 7.04 | 6.62 | – | – | CC(C)(C)c1cc(-c2ccc(Cl)cc2)nc2cc(C(=O)N3CCC(=O)NCC3(C)C)oc12 [Example I-322]
